# Reference: publication PMC10008561 (Nature Communications, 2023)
# Several values for one entry are separate records, joined by “and”; a condition that tells them apart may be missing. Equal entries are not always repeated.
# What was measured:
# Assay in all cases: cell-based
# human KOR [1] = molecular target: T1, human KOR (Homo sapiens, UniProt P41145, V134A); settings: HTLA
# T1 construct: expressed in transfected cells; host or cells: HEK 293T (ATCC, CRL-3216)
# human KOR [2] = molecular target: T2, human KOR (Homo sapiens, UniProt P41145, Y320L); settings: HTLA
# T2 construct: expressed in transfected cells; host or cells: HEK 293T (ATCC, CRL-3216)
# human KOR [3] = molecular target: T3, human KOR (Homo sapiens, UniProt P41145, G319L); settings: HTLA
# T3 construct: expressed in transfected cells; host or cells: HEK 293T (ATCC, CRL-3216)
# human KOR [4] = molecular target: T4, human KOR (Homo sapiens, UniProt P41145, Q115N); settings: HTLA
# T4 construct: expressed in transfected cells; host or cells: HEK 293T (ATCC, CRL-3216)
# human KOR [5] = molecular target: T5, human KOR (Homo sapiens, UniProt P41145, W124L); settings: HTLA
# T5 construct: expressed in transfected cells; host or cells: HEK 293T (ATCC, CRL-3216)
# human KOR [6] = molecular target: T6, human KOR (Homo sapiens, UniProt P41145, F114L); settings: HTLA
# T6 construct: expressed in transfected cells; host or cells: HEK 293T (ATCC, CRL-3216)
# human KOR [7] = molecular target: T7, human KOR (Homo sapiens, UniProt P41145, K227A); settings: HTLA
# T7 construct: expressed in transfected cells; host or cells: HEK 293T (ATCC, CRL-3216)
# human KOR (β-arrestin 1) [8] = molecular target: T8, human KOR (β-arrestin 1) (Homo sapiens, UniProt P41145, R257A); settings: HEK-293T
# T8 construct: expressed in transfected cells; host or cells: HEK293T
# human KOR (β-arrestin 1) [9] = molecular target: T9, human KOR (β-arrestin 1) (Homo sapiens, UniProt P41145, E297A); settings: HEK-293T
# T9 construct: expressed in transfected cells; host or cells: HEK293T
# human KOR (β-arrestin 1) [10] = molecular target: T10, human KOR (β-arrestin 1) (Homo sapiens, UniProt P41145, N326A); settings: HEK-293T
# T10 construct: expressed in transfected cells; host or cells: HEK293T
# human KOR (β-arrestin 1) [11] = molecular target: T11, human KOR (β-arrestin 1) (Homo sapiens, UniProt P41145, F283A); settings: HEK-293T
# T11 construct: expressed in transfected cells; host or cells: HEK293T
# human KOR (β-arrestin 1) [12] = molecular target: T12, human KOR (β-arrestin 1) (Homo sapiens, UniProt P41145, Y139L); settings: HEK-293T
# T12 construct: expressed in transfected cells; host or cells: HEK293T
# human KOR (β-arrestin 1) [13] = molecular target: T13, human KOR (β-arrestin 1) (Homo sapiens, UniProt P41145, T94V); settings: HEK-293T
# T13 construct: expressed in transfected cells; host or cells: HEK293T
# human KOR (β-arrestin 1) [14] = molecular target: T14, human KOR (β-arrestin 1) (Homo sapiens, UniProt P41145, G319L); settings: HEK-293T
# T14 construct: expressed in transfected cells; host or cells: HEK293T
# human KOR (β-arrestin 1) [15] = molecular target: T15, human KOR (β-arrestin 1) (Homo sapiens, UniProt P41145, Y320L); settings: HEK-293T
# T15 construct: expressed in transfected cells; host or cells: HEK293T
# human KOR (β-arrestin 1) [16] = molecular target: T16, human KOR (β-arrestin 1) (Homo sapiens, UniProt P41145, K227A); settings: HEK-293T
# T16 construct: expressed in transfected cells; host or cells: HEK293T
# human KOR (β-arrestin 1) [17] = molecular target: T17, human KOR (β-arrestin 1) (Homo sapiens, UniProt P41145, D105A); settings: HEK-293T
# T17 construct: expressed in transfected cells; host or cells: HEK293T
# human KOR (β-arrestin 1) [18] = molecular target: T18, human KOR (β-arrestin 1) (Homo sapiens, UniProt P41145, D155A); settings: HEK-293T
# T18 construct: expressed in transfected cells; host or cells: HEK293T
# human KOR (β-arrestin 1) [19] = molecular target: T19, human KOR (β-arrestin 1) (Homo sapiens, UniProt P41145, K200A); settings: HEK-293T
# T19 construct: expressed in transfected cells; host or cells: HEK293T
# human KOR (β-arrestin 1) [20] = molecular target: T20, human KOR (β-arrestin 1) (Homo sapiens, UniProt P41145, L253A); settings: HEK-293T
# T20 construct: expressed in transfected cells; host or cells: HEK293T
# human KOR (β-arrestin 1) [21] = molecular target: T21, human KOR (β-arrestin 1) (Homo sapiens, UniProt P41145, R170A); settings: HEK-293T
# T21 construct: expressed in transfected cells; host or cells: HEK293T
# human KOR (β-arrestin 1) [22] = molecular target: T22, human KOR (β-arrestin 1) (Homo sapiens, UniProt P41145, R271A); settings: HEK-293T
# T22 construct: expressed in transfected cells; host or cells: HEK293T
# human KOR (β-arrestin 1) [23] = molecular target: T23, human KOR (β-arrestin 1) (Homo sapiens, UniProt P41145, N322A); settings: HEK-293T
# T23 construct: expressed in transfected cells; host or cells: HEK293T
# human KOR (β-arrestin 1) [24] = molecular target: T24, human KOR (β-arrestin 1) (Homo sapiens, UniProt P41145, F114L); settings: HEK-293T
# T24 construct: expressed in transfected cells; host or cells: HEK293T
# human KOR (β-arrestin 1) [25] = molecular target: T25, human KOR (β-arrestin 1) (Homo sapiens, UniProt P41145, N141A); settings: HEK-293T
# T25 construct: expressed in transfected cells; host or cells: HEK293T
# human KOR (β-arrestin 1) [26] = molecular target: T26, human KOR (β-arrestin 1) (Homo sapiens, UniProt P41145, Q115N); settings: HEK-293T
# T26 construct: expressed in transfected cells; host or cells: HEK293T
# human KOR (β-arrestin 1) [27] = molecular target: T27, human KOR (β-arrestin 1) (Homo sapiens, UniProt P41145)
# T27 construct: expressed in transfected cells; host or cells: HEK293T
# human KOR (β-arrestin 1) [28] = molecular target: T28, human KOR (β-arrestin 1) (Homo sapiens, UniProt P41145, D334A); settings: HEK-293T
# T28 construct: expressed in transfected cells; host or cells: HEK293T
# human KOR (β-arrestin 1) [29] = molecular target: T29, human KOR (β-arrestin 1) (Homo sapiens, UniProt P41145, R274A); settings: HEK-293T
# T29 construct: expressed in transfected cells; host or cells: HEK293T
# [30] = HEK-293T, read-out: βArrestin1 (Figure 5A concentration-response, replicate values)
# T1 sequence (P41145 whole entry V134A): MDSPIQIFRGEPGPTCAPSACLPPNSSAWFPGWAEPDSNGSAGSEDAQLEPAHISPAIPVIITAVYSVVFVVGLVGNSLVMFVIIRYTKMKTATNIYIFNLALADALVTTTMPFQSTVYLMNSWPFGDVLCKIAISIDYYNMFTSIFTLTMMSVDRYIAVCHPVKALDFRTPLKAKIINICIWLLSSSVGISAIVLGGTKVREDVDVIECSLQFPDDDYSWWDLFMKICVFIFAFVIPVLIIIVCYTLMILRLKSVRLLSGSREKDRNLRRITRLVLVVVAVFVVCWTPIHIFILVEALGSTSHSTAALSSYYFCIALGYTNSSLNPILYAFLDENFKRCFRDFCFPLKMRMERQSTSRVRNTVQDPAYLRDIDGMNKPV
# T2 sequence (P41145 whole entry Y320L): as the sequence (P41145 whole entry V134A) above, with A134V, Y320L counted along it
# T6 sequence (P41145 whole entry F114L): as the sequence (P41145 whole entry V134A) above, with F114L, A134V counted along it
# T27 sequence (P41145 whole entry): as the sequence (P41145 whole entry V134A) above, with A134V counted along it
# T5 sequence (P41145 whole entry W124L): as the sequence (P41145 whole entry V134A) above, with W124L, A134V counted along it
# T3 sequence (P41145 whole entry G319L): as the sequence (P41145 whole entry V134A) above, with A134V, G319L counted along it
# T8 sequence (P41145 whole entry R257A): as the sequence (P41145 whole entry V134A) above, with A134V, R257A counted along it
# T23 sequence (P41145 whole entry N322A): as the sequence (P41145 whole entry V134A) above, with A134V, N322A counted along it
# T13 sequence (P41145 whole entry T94V): as the sequence (P41145 whole entry V134A) above, with T94V, A134V counted along it
# T19 sequence (P41145 whole entry K200A): as the sequence (P41145 whole entry V134A) above, with A134V, K200A counted along it
# T17 sequence (P41145 whole entry D105A): as the sequence (P41145 whole entry V134A) above, with D105A, A134V counted along it
# T18 sequence (P41145 whole entry D155A): as the sequence (P41145 whole entry V134A) above, with A134V, D155A counted along it
# T4 sequence (P41145 whole entry Q115N): as the sequence (P41145 whole entry V134A) above, with Q115N, A134V counted along it
# T26 sequence (P41145 whole entry Q115N): as the sequence (P41145 whole entry V134A) above, with Q115N, A134V counted along it
# T16 sequence (P41145 whole entry K227A): as the sequence (P41145 whole entry V134A) above, with A134V, K227A counted along it
# T7 sequence (P41145 whole entry K227A): as the sequence (P41145 whole entry V134A) above, with A134V, K227A counted along it
# T15 sequence (P41145 whole entry Y320L): as the sequence (P41145 whole entry V134A) above, with A134V, Y320L counted along it
# T24 sequence (P41145 whole entry F114L): as the sequence (P41145 whole entry V134A) above, with F114L, A134V counted along it
# T14 sequence (P41145 whole entry G319L): as the sequence (P41145 whole entry V134A) above, with A134V, G319L counted along it
# T20 sequence (P41145 whole entry L253A): as the sequence (P41145 whole entry V134A) above, with A134V, L253A counted along it
# T28 sequence (P41145 whole entry D334A): as the sequence (P41145 whole entry V134A) above, with A134V, D334A counted along it
# T9 sequence (P41145 whole entry E297A): as the sequence (P41145 whole entry V134A) above, with A134V, E297A counted along it
# T25 sequence (P41145 whole entry N141A): as the sequence (P41145 whole entry V134A) above, with A134V, N141A counted along it
# T11 sequence (P41145 whole entry F283A): as the sequence (P41145 whole entry V134A) above, with A134V, F283A counted along it
# T22 sequence (P41145 whole entry R271A): as the sequence (P41145 whole entry V134A) above, with A134V, R271A counted along it
# T12 sequence (P41145 whole entry Y139L): as the sequence (P41145 whole entry V134A) above, with A134V, Y139L counted along it
# T10 sequence (P41145 whole entry N326A): as the sequence (P41145 whole entry V134A) above, with A134V, N326A counted along it
# T21 sequence (P41145 whole entry R170A): as the sequence (P41145 whole entry V134A) above, with A134V, R170A counted along it
# T29 sequence (P41145 whole entry R274A): as the sequence (P41145 whole entry V134A) above, with A134V, R274A counted along it
compound,measurement,setting,value
"CN(C(=O)/C=C/c1ccoc1)[C@@H]1CC[C@@]2(O)[C@H]3Cc4ccc(O)c5c4[C@@]2(CCN3CC2CC2)[C@H]1O5 [Nalfurafine, nalfurafine]",Emax,human KOR [1],76 ± 6%
same,activation at 10 µM,human KOR [1]; read-out: Tango response,71.1%
same,activation at […],human KOR [1]; read-out: Tango response,50.8% and 73.3%
same,Emax,human KOR [2],66 ± 7%
same,activation at 0.1 µM,human KOR [2]; read-out: Tango response,43.6%
same,activation at 1 µM,human KOR [2]; read-out: Tango response,51.8%
same,activation at 10 µM,human KOR [2]; read-out: Tango response,79.2%
same,activation at […],human KOR [2]; read-out: Tango response,53% and 72.8%
same,Emax,human KOR [3],2.6 ± 1.2%
same,activation at 1 µM,human KOR [3]; read-out: Tango response,4.03%
same,Emax,human KOR [4],98 ± 3%
same,Emax,human KOR [5],26 ± 4%
same,activation at 1 µM,human KOR [5]; read-out: Tango response,19.6%
same,activation at […],human KOR [5]; read-out: Tango response,21% and 25.5%
same,Emax,human KOR [6],17 ± 3%
same,activation at 1 µM,human KOR [6]; read-out: Tango response,16.2%
same,activation at 10 µM,human KOR [6]; read-out: Tango response,15.9%
same,activation at […],human KOR [6]; read-out: Tango response,30.3%
same,Emax,human KOR [7],89 ± 3%
same,Emax,human KOR (β-arrestin 1) [8],103%
same,Emax,human KOR (β-arrestin 1) [9],101%
same,Emax,human KOR (β-arrestin 1) [10],65.2%
same,Emax,human KOR (β-arrestin 1) [11],100%
same,Emax,human KOR (β-arrestin 1) [12],92.8%
same,Emax,human KOR (β-arrestin 1) [13],73.2%
same,Emax,human KOR (β-arrestin 1) [14],60.4%
same,Emax,human KOR (β-arrestin 1) [15],83.6%
same,Emax,human KOR (β-arrestin 1) [16],77.5%
same,Emax,human KOR (β-arrestin 1) [17],91.6%
same,Emax,human KOR (β-arrestin 1) [18],86.5%
same,Emax,human KOR (β-arrestin 1) [19],81.3%
same,Emax,human KOR (β-arrestin 1) [20],94.5%
same,Emax,human KOR (β-arrestin 1) [21],81.8%
same,Emax,human KOR (β-arrestin 1) [22],101%
same,Emax,human KOR (β-arrestin 1) [23],101%
same,Emax,human KOR (β-arrestin 1) [24],33.9%
same,Emax,human KOR (β-arrestin 1) [25],91.3%
same,Emax,human KOR (β-arrestin 1) [26],62.2%
same,Emax%,human KOR (β-arrestin 1) [27],52.03% and 50%
same,Emax,human KOR (β-arrestin 1) [27]; HEK-293T,52.1%
same,activation at 0.01 µM,human KOR (β-arrestin 1) [27]; [30],47.1%
same,activation at 0.1 µM,human KOR (β-arrestin 1) [27]; [30],49.9%
same,activation at 1 µM,human KOR (β-arrestin 1) [27]; [30],52.7%
same,Emax,human KOR (β-arrestin 1) [28],71.1%
same,Emax,human KOR (β-arrestin 1) [29],78.7%
